Where two headings read alike, the source gives them in different places.
Experiments:
SUDHL8 = assay: Cytotoxicity in SUDHL8; type: cell-based; details: Table 2; read-out: IC50 in cancer cell lines, SUDHL8
Method: (§1) Ligase IV specificity of the compounds of the present invention inside the cells were also determined using Ligase IV knock out (KO) cell line N114 compared to the wild type Nalm6 (Table 2, FIGS. 5C, D, E and F). […] Table 1 showing IC50 of SCR7 derivatives in cancer cell lines Nalm6 and HeLa. IC50 was calculated using GraphPad Prism software from the percentage of viable cells following treatment with the compounds at 48 h. Table 2 showing IC50 of SCR116 and SCR132 in a panel of 16 cancer cell lines.

MCF7 = assay: Cytotoxicity in MCF7; type: cell-based; details: Table 2; read-out: IC50 in cancer cell lines, MCF7
Method: as §1

EAC = assay: Cytotoxicity in EAC; type: cell-based, mice; details: Table 2; read-out: IC50 in cancer cell lines, EAC
Method: as §1

[1] = test system: cancer cell lines, particularly leukemia; details: background statement; cited from earlier work
L1210 = assay: Cytotoxicity in L1210; type: cell-based; details: Table 2; read-out: IC50 in cancer cell lines, L1210
Method: as §1

[2] = test system: Ligase IV knock out (KO) cell line N114; details: Vartak et al. 2018, cited from earlier work
Raji = assay: Cytotoxicity in Raji; type: cell-based; details: Table 2; read-out: IC50 in cancer cell lines, Raji
Method: as §1

CEM = assay: Cytotoxicity in CEM; type: cell-based; details: Table 2; read-out: IC50 in cancer cell lines, CEM
Method: as §1

HeLa = assay: Cytotoxicity (viable cells) in HeLa; type: cell-based; details: Table 2; read-out: IC50 in cancer cell lines, HeLa
Method: (§2) The compounds of the present invention were screened initially in leukemic and cervical cancer cell lines (Table 1). […] In cervical cancer cell line HeLa, IC50 was 5 and 2 μM, respectively for SCR116 and SCR132 (FIG. 5A-B).
as §1

Molt3 = assay: Cytotoxicity in Molt3; type: cell-based; details: Table 2; read-out: IC50 in cancer cell lines, Molt3
Method: as §1

[3] = test system: Ligase IV knock out (KO) cell line N114; assay: Cytotoxicity in Ligase IV knock out cell line N114; type: cell-based; details: Table 2, 48 h, read-out: IC50 in cancer cell lines, N114
Method: as §1

HCT116 = assay: Cytotoxicity in HCT116; type: cell-based; details: Table 2; read-out: IC50 in cancer cell lines, HCT116
Method: as §1

DNA Ligase IV/XRCC4 = molecular target: T1, DNA Ligase IV/XRCC4 (Homo sapiens, UniProt P49917); details: 200 μM; background statement; cited from earlier work
T1 construct: made in house; host or cells: bacteria

LN229 = assay: Cytotoxicity in LN229; type: cell-based; details: Table 2; read-out: IC50 in cancer cell lines, LN229
Method: as §1

[4] = Bioavailability in mice serum by HPLC; details: intraperitoneal, 20 mg/kg body weight
Method: The bioavailability of the compounds of the present disclosure were analysed in mice serum at different time points (0.5, 1, 2, 4, 6, 8, 10, 12, 24 and 48 h) by HPLC at 232 nm wavelength (FIGS. 10N-P).

Nalm6 = assay: Cytotoxicity (viable cells) in Nalm6; type: cell-based; details: Table 2; read-out: IC50 in cancer cell lines, Nalm6
Method: as §2, §1

Molt4 = assay: Cytotoxicity in Molt4; type: cell-based, human; details: Table 2; read-out: IC50 in cancer cell lines, Molt4
Method: as §1

U118 = assay: Cytotoxicity in U118; type: cell-based; details: Table 2; read-out: IC50 in cancer cell lines, U118
Method: as §1

Supt1 = assay: Cytotoxicity in Supt1; type: cell-based; details: Table 2; read-out: IC50 in cancer cell lines, Supt1
Method: as §1

Reh = assay: Cytotoxicity in Reh; type: cell-based; details: Table 2; 48 h; read-out: IC50 in cancer cell lines, Reh
Method: as §2, §1

T1 sequence (P49917 whole entry): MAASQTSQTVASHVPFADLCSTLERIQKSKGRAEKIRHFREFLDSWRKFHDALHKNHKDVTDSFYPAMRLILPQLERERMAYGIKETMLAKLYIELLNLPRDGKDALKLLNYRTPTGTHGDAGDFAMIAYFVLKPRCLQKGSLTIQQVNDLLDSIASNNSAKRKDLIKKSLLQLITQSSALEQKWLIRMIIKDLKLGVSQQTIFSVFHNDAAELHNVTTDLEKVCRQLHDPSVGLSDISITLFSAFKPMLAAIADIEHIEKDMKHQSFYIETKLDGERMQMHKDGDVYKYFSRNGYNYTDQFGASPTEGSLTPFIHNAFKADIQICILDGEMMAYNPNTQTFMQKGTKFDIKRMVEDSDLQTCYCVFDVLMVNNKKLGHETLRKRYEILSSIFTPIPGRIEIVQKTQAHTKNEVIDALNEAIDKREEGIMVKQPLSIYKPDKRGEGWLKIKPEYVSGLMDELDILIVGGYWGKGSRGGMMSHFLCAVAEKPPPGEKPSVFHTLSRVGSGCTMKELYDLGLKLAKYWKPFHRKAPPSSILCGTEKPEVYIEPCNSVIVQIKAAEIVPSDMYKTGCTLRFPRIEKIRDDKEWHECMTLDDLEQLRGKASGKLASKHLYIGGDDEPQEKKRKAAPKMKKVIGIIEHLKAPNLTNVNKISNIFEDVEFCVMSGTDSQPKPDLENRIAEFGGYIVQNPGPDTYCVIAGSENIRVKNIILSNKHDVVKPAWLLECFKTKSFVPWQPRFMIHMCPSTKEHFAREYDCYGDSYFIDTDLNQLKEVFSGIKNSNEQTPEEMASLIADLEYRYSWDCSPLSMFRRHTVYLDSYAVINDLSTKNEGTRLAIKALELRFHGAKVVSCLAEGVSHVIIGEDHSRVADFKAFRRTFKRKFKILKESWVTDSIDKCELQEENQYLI
T1 sequence (Q13426 whole entry partner): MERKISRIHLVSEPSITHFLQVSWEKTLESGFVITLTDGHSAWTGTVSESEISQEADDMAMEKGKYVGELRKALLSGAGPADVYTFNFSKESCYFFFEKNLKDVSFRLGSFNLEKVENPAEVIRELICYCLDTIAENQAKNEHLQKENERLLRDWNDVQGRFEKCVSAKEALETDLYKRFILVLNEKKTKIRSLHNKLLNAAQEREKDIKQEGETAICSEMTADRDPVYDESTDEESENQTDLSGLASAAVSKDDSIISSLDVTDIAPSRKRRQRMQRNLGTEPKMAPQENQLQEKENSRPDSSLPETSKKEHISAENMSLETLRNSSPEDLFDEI

**Q.** Which results are given for `O=c1[nH]c(=S)[nH]c(N=Cc2ccccc2)c1N=Cc1ccccc1` [SCR7, reference compound]?
**A.** IC50 (SUDHL8): 100 µM; IC50 (MCF7): 40 µM; IC50 (EAC): 132 µM; IC50 [1]: > 250 µM; IC50 (L1210): 370 µM; IC50 [2]: > 250 µM; Fold increased IC50 in N114 ([2]; vs Nalm6): 5 fold; IC50 (Raji): > 250 µM; IC50 (CEM): > 200 µM; IC50 (HeLa): 44 µM; IC50 (Molt3): 79.1 µM; IC50 [3]: > 250 µM; IC50 (HCT116): 302 µM; Inhibition of DNA Ligase IV (DNA Ligase IV/XRCC4): 50%; IC50 (LN229): 59.9 µM; t1/2 [4]: 1 h; IC50 (Nalm6): 50 µM; IC50 (Molt4): 182 µM; IC50 (U118): 151 µM; IC50 (Supt1): 109 µM; IC50 (Reh): > 250 µM
